What all share (assay): cell-based
For one assay, the target named is hNav1.4 (Homo sapiens, UniProt P35499). The format is cell-based. To be noted: for IC50: read-out: PX hNav1.4 Tonic IC50; for Nav1.4/Nav1.7: ratio of PX tonic IC50 values.
The next assay has as its target hNav1.7 (Homo sapiens, UniProt Q15858). Format: cell-based. As to conditions: read-out: PX hNav1.7 Tonic IC50.
A further assay addresses hNav1.5 (Homo sapiens, UniProt Q14524). As to conditions: for IC50: read-out: PX hNav1.5 Tonic IC50; for Nav1.5/Nav1.7: ratio of PX tonic IC50 values.
[1] abbreviates: Table 12, PatchXpress, tonic block.

Where two headings read alike, the source gives them in different places.

The IC50 is the midpoint of a concentration-inhibition curve.

Sequence of hNav1.5 (Q14524 whole entry): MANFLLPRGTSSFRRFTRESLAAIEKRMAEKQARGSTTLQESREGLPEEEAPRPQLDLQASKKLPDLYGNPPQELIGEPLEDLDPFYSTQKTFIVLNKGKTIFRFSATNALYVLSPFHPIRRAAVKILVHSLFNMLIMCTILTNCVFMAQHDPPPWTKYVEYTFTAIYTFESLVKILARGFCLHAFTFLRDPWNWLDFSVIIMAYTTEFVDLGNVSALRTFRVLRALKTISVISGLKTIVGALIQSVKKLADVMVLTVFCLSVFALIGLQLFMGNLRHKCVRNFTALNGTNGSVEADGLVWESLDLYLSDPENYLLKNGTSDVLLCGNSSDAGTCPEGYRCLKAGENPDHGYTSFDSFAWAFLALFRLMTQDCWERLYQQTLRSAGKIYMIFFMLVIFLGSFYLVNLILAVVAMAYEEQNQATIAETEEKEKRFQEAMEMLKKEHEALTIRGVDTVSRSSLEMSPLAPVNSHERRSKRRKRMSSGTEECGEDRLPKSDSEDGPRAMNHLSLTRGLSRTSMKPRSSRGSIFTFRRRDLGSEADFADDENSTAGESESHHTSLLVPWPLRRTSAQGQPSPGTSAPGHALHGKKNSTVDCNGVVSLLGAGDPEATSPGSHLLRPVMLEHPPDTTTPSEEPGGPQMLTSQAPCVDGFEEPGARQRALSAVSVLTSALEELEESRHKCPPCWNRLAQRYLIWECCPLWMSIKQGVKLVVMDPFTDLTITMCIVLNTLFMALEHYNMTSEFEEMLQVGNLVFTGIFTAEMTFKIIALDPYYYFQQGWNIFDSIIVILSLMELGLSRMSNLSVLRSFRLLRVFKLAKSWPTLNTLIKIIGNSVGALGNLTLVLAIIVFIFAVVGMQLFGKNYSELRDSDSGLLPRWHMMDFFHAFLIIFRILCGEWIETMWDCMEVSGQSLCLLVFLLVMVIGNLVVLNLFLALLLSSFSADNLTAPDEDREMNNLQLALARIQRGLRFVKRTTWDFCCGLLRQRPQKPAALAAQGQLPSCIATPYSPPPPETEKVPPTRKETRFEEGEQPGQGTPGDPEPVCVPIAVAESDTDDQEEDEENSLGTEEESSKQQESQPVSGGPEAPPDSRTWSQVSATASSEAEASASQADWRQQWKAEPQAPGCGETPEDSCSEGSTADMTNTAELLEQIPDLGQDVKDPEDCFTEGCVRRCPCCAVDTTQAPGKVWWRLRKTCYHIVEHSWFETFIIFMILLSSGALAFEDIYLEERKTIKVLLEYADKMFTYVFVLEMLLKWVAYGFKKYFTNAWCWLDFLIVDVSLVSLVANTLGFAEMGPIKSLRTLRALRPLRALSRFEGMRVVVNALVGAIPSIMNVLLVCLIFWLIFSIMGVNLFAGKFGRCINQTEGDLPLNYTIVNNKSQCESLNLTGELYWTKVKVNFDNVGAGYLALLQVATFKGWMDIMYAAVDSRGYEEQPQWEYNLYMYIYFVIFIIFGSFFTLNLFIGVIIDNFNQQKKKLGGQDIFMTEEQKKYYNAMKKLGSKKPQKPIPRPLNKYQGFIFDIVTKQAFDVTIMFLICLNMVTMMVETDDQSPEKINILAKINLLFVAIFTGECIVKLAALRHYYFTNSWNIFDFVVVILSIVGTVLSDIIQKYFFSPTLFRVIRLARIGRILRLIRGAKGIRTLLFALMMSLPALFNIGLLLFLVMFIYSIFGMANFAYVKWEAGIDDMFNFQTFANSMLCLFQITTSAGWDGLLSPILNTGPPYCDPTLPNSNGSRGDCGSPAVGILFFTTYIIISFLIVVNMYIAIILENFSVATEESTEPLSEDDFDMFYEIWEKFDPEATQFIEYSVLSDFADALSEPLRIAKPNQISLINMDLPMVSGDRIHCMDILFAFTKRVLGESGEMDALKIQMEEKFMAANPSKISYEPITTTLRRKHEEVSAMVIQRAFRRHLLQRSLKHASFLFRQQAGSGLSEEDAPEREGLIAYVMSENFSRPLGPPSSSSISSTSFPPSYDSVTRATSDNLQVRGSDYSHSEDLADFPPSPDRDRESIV
Sequence of hNav1.7 (Q15858 whole entry): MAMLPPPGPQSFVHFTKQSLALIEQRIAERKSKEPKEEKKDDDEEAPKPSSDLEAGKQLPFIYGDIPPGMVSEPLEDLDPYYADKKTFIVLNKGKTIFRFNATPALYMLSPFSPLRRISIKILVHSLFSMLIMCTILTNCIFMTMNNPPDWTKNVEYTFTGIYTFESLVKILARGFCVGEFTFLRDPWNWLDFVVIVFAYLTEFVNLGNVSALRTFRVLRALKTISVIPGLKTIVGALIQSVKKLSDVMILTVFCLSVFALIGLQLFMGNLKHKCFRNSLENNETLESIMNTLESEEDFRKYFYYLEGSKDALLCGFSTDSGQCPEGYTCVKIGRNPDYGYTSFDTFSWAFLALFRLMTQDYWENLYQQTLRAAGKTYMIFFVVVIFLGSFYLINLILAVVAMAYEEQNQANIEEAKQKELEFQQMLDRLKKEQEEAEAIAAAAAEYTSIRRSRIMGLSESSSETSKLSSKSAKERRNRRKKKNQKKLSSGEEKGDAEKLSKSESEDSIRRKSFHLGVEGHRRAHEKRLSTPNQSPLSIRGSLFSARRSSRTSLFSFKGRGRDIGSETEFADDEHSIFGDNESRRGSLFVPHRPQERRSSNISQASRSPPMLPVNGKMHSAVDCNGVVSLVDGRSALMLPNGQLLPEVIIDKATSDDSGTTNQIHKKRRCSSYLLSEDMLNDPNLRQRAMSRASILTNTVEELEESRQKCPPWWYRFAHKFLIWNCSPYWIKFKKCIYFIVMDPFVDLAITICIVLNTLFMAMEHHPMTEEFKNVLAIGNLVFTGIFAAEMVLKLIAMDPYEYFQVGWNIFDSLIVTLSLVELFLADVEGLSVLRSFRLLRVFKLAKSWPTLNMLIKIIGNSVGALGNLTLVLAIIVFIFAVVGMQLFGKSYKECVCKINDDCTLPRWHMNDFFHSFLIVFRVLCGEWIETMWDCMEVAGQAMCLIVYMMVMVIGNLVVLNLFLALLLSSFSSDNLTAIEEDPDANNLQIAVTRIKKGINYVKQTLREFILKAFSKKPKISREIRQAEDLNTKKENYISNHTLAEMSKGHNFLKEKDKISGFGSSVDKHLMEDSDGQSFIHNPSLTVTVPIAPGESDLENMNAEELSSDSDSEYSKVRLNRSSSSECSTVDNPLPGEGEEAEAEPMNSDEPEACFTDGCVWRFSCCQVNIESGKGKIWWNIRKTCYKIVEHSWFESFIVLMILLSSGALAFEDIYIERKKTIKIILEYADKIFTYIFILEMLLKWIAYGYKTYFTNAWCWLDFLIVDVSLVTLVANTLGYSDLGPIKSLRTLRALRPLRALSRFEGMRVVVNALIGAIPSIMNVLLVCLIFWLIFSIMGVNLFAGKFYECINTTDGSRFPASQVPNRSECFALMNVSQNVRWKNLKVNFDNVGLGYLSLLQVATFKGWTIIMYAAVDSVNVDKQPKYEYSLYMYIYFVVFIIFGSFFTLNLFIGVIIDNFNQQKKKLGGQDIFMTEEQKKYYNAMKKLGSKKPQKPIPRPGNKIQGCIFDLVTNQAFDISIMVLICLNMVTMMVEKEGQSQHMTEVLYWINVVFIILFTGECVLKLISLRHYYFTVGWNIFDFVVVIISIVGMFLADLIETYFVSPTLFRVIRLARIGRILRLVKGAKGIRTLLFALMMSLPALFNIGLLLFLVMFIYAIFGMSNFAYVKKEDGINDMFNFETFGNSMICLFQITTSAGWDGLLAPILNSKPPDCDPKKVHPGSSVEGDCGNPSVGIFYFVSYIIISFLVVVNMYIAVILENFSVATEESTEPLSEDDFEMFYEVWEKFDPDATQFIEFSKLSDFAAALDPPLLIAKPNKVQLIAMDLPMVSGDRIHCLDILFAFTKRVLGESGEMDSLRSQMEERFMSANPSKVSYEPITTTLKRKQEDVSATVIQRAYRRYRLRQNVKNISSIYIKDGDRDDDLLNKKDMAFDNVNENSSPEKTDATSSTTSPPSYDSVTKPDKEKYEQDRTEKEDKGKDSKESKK

As for `C#CC[C@H](N)C(=O)N[C@@H](Cc1ccc(O)cc1)C(=O)N[C@H]1CSSC[C@@H]2NC(=O)[C@@H]3CSSC[C@@H](C(=O)N[C@@H](CCCNC(=N)N)C(=O)N[C@@H](CCCCN)C(=O)N[C@H](C(=O)N[C@@H](Cc4c[nH]c5ccccc45)C(N)=O)[C@@H](C)CC)NC(=O)[C@H](Cc4c[nH]c5ccccc45)NC(=O)[C@H](CC(C)C)NC(=O)[C@H](CCCCN)NC(=O)[C@H](CSSC[C@H](NC(=O)[C@H]([C@@H](C)O)NC(=O)[C@H](Cc4c[nH]c5ccccc45)NC(=O)[C@H](CCCC)NC(=O)[C@H](Cc4c[nH]c5ccccc45)NC(=O)[C@H](CCCCN)NC(=O)[C@H](CCC(N)=O)NC1=O)C(=O)N[C@@H](CC(=O)O)C(=O)N[C@@H](CO)C(=O)N[C@@H](CCCCN)C(=O)N[C@@H](CCCNC(=N)N)C(=O)N[C@@H](C)C(=O)N3)NC(=O)[C@H](CCCNC(=N)N)NC(=O)[C@H](CC(C)C)NC(=O)CNC(=O)[C@H](CCC(=O)O)NC2=O` [compound 296], the IC50 is 37 nM at hNav1.4 (setting [1]), 4.79 nM on hNav1.7 (setting [1]) and 2290 nM on hNav1.5 (setting [1]). In addition, the Nav1.4/Nav1.7 at hNav1.4 (Table 12) turned out to be 8. The Nav1.5/Nav1.7 at hNav1.5 (Table 12) came to 479.

Take `C#CC[C@H](N)C(=O)NCCOCCOCCOCCOCCC(=O)NCCCC[C@@H]1NC(=O)[C@H](CCCNC(=N)N)NC(=O)[C@H](CCCCN)NC(=O)[C@H](CO)NC(=O)[C@H](CC(=O)O)NC(=O)[C@@H]2CSSC[C@@H]3NC(=O)[C@H](CCCNC(=N)N)NC(=O)[C@H](CC(C)C)NC(=O)CNC(=O)[C@H](CCC(=O)O)NC(=O)[C@H](CSSC[C@H](NC(=O)[C@H](Cc4ccc(O)cc4)NC(=O)[C@@H](N)CC#N)C(=O)N[C@@H](CCC(N)=O)C(=O)N[C@@H](CCCCN)C(=O)N[C@@H](Cc4c[nH]c5ccccc45)C(=O)N[C@@H](CCCC)C(=O)N[C@@H](Cc4c[nH]c5ccccc45)C(=O)N[C@@H]([C@@H](C)O)C(=O)N2)NC(=O)[C@H](CSSC[C@@H](C(=O)N[C@@H](CCCNC(=N)N)C(=O)N[C@@H](CCCCN)C(=O)N[C@H](C(=O)N[C@H](C(N)=O)[C@@H](C)CC)[C@@H](C)CC)NC(=O)[C@H](Cc2c[nH]c4ccccc24)NC(=O)[C@H](CC(C)C)NC(=O)[C@H](CCCCN)NC3=O)NC1=O` [compound 380]: on hNav1.4 (Table 12), the Nav1.4/Nav1.7 was 0. Moreover, the IC50 on hNav1.7 (setting [1]) was found to be 0.845 nM. The Nav1.5/Nav1.7 on hNav1.5 (Table 12) is reported as 0.

Turning to `CCCC[C@@H]1NC(=O)[C@H](Cc2c[nH]c3ccccc23)NC(=O)[C@H](CCCCN)NC(=O)[C@H](CCC(N)=O)NC(=O)[C@@H](NC(=O)[C@H](Cc2ccc(O)cc2)NC(=O)[C@@H](N)Cc2cn(CCOCCOCCOCCOCCOCCOCCOCCOCCOCCOCCOCCNC(=O)CSCc3ccccc3)nn2)CSSC[C@@H]2NC(=O)[C@@H]3CSSC[C@@H](C(=O)N[C@@H](CCCNC(=N)N)C(=O)N[C@@H](CCCCN)C(=O)N[C@H](C(=O)N[C@H](C(N)=O)[C@@H](C)CC)[C@@H](C)CC)NC(=O)[C@H](Cc4c[nH]c5ccccc45)NC(=O)[C@H](CC(C)C)NC(=O)[C@H](CCCCN)NC(=O)[C@H](CSSC[C@H](NC(=O)[C@H]([C@@H](C)O)NC(=O)[C@H](Cc4c[nH]c5ccccc45)NC1=O)C(=O)N[C@@H](CC(=O)O)C(=O)N[C@@H](CO)C(=O)N[C@@H](CCCCN)C(=O)N[C@@H](CCCNC(=N)N)C(=O)N[C@@H](C)C(=O)N3)NC(=O)[C@H](CCCNC(=N)N)NC(=O)[C@H](CC(C)C)NC(=O)CNC(=O)[C@H](CCC(=O)O)NC2=O` [compound 427], the Nav1.4/Nav1.7 at hNav1.4 (Table 13) was determined as 9. The Nav1.5/Nav1.7 on hNav1.5 (Table 13) is 1416.

For `CCC[C@H](N)C(=O)N[C@@H](Cc1ccc(O)cc1)C(=O)N[C@H]1CSSC[C@@H]2NC(=O)[C@@H]3CSSC[C@@H](C(=O)N[C@@H](CCCNC(=N)N)C(=O)N[C@@H](CCCCN)C(=O)N[C@H](C(=O)N[C@H](C(N)=O)[C@@H](C)CC)[C@@H](C)CC)NC(=O)[C@H](Cc4c[nH]c5ccccc45)NC(=O)[C@H](CC(C)C)NC(=O)[C@H](CCCCN)NC(=O)[C@H](CSSC[C@H](NC(=O)[C@H]([C@@H](C)O)NC(=O)[C@H](Cc4c[nH]c5ccccc45)NC(=O)[C@H](CC(C)C)NC(=O)[C@H](Cc4c[nH]c5ccccc45)NC(=O)[C@H](CCCCN)NC(=O)[C@H](CCC(N)=O)NC1=O)C(=O)N[C@@H](CC(=O)O)C(=O)N[C@@H](CO)C(=O)N[C@@H](CCCCN)C(=O)N[C@@H](CCCNC(=N)N)C(=O)N[C@@H](CCCCNC(=O)[C@@H](N)Cc1cn(CCOCCOCCOCCOCCOCCOCCOCCOCCOCCOCCN)nn1)C(=O)N3)NC(=O)[C@H](CCCNC(=N)N)NC(=O)[C@H](CC(C)C)NC(=O)CNC(=O)[C@H](CCC(=O)O)NC2=O` [compound 446], the Nav1.4/Nav1.7 on hNav1.4 (Table 13) was 11. Further, the IC50 was found to be 128 nM on hNav1.4, 11.6 nM at hNav1.7 and 2410 nM on hNav1.5. On hNav1.5 (Table 13), the Nav1.5/Nav1.7 turned out to be 207.

`C#CC[C@H](N)C(=O)NCCCC[C@@H]1NC(=O)[C@H](CCCNC(=N)N)NC(=O)[C@H](CCCCN)NC(=O)[C@H](CO)NC(=O)[C@H](CC(=O)O)NC(=O)[C@@H]2CSSC[C@@H]3NC(=O)[C@H](CCCNC(=N)N)NC(=O)[C@H](CC(C)C)NC(=O)CNC(=O)[C@H](CCC(=O)O)NC(=O)[C@H](CSSC[C@H](NC(=O)[C@H](Cc4ccc(O)cc4)NC(=O)[C@@H](N)CC#N)C(=O)N[C@@H](CCC(N)=O)C(=O)N[C@@H](CCCCN)C(=O)N[C@@H](Cc4c[nH]c5ccccc45)C(=O)N[C@@H](CC(C)C)C(=O)N[C@@H](Cc4c[nH]c5ccccc45)C(=O)N[C@@H]([C@@H](C)O)C(=O)N2)NC(=O)[C@H](CSSC[C@@H](C(=O)N[C@@H](CCCNC(=N)N)C(=O)N[C@@H](CCCCN)C(=O)N[C@@H](CCC(=O)O)C(=O)N[C@H](C(N)=O)[C@@H](C)CC)NC(=O)[C@H](Cc2c[nH]c4ccccc24)NC(=O)[C@H](CC(C)C)NC(=O)[C@H](CCCCN)NC3=O)NC1=O` [compound 449]: the Nav1.4/Nav1.7 on hNav1.4 (Table 12) is given as 111. The Nav1.5/Nav1.7 at hNav1.5 (Table 12) is on record as 1038.

For `C#CC[C@H](N)C(=O)N[C@@H](Cc1ccc(O)cc1)C(=O)N[C@H]1CSSC[C@@H]2NC(=O)[C@@H]3CSSC[C@@H](C(=O)N[C@@H](CCCNC(=N)N)C(=O)N[C@@H](CCCCN)C(=O)N[C@@H](CCC(N)=O)C(=O)N[C@H](C(N)=O)[C@@H](C)CC)NC(=O)[C@H](Cc4c[nH]c5ccccc45)NC(=O)[C@H](CC(C)C)NC(=O)[C@H](CCCCN)NC(=O)[C@H](CSSC[C@H](NC(=O)[C@H]([C@@H](C)O)NC(=O)[C@H](Cc4c[nH]c5ccccc45)NC(=O)[C@H](CCCC)NC(=O)[C@H](Cc4c[nH]c5ccccc45)NC(=O)[C@H](CCCCN)NC(=O)[C@H](CCC(N)=O)NC1=O)C(=O)N[C@@H](CC(=O)O)C(=O)N[C@@H](CO)C(=O)N[C@@H](CCCCN)C(=O)N[C@@H](CCCNC(=N)N)C(=O)N[C@@H](C)C(=O)N3)NC(=O)[C@H](CCCNC(=N)N)NC(=O)[C@H](CC(C)C)NC(=O)CNC(=O)[C@H](CCC(=O)O)NC2=O` [compound 665], the results for the IC50 at hNav1.4 (setting [1]), on hNav1.7 (setting [1]) and on hNav1.5 (setting [1]) were 10.7 nM, 0.912 nM and 3220 nM, respectively. At hNav1.4 (Table 12), the Nav1.4/Nav1.7 came to 12. Moreover, on hNav1.5 (Table 12), the Nav1.5/Nav1.7 is 3529.

Consider `CCCC[C@@H]1NC(=O)[C@H](Cc2c[nH]c3ccccc23)NC(=O)[C@H](CCCCN)NC(=O)[C@H](CCC(N)=O)NC(=O)[C@@H](NC(=O)[C@H](Cc2ccc(O)cc2)NC(=O)[C@H](CC#N)NC(=O)[C@@H](N)CCCCN)CSSC[C@@H]2NC(=O)[C@@H]3CSSC[C@@H](C(=O)N[C@@H](CCCNC(=N)N)C(=O)N[C@@H](CCCCN)C(=O)N[C@@H](CCC(=O)O)C(=O)N[C@H](C(N)=O)[C@@H](C)CC)NC(=O)[C@H](Cc4c[nH]c5ccccc45)NC(=O)[C@H](CC(C)C)NC(=O)[C@H](CCCCN)NC(=O)[C@H](CSSC[C@H](NC(=O)[C@H]([C@@H](C)O)NC(=O)[C@H](Cc4c[nH]c5ccccc45)NC1=O)C(=O)N[C@@H](CC(=O)O)C(=O)N[C@@H](CO)C(=O)N[C@@H](CCCCN)C(=O)N[C@@H](CCCNC(=N)N)C(=O)N[C@@H](CCCCNC(=O)[C@@H](N)Cc1cn(CCOCCOCCOCCOCCOCCOCCOCCOCCOCCOCCN)nn1)C(=O)N3)NC(=O)[C@H](CCCNC(=N)N)NC(=O)[C@H](CC(C)C)NC(=O)CNC(=O)[C@H](CCC(=O)O)NC2=O` [compound 891], for which, on hNav1.4 (Table 13), the Nav1.4/Nav1.7 is given as 66. For the same molecule, on hNav1.5 (Table 13), the Nav1.5/Nav1.7 is 655.

With `CCCC[C@@H]1NC(=O)[C@H](Cc2c[nH]c3ccccc23)NC(=O)[C@H](CCCCN)NC(=O)[C@H](CCC(N)=O)NC(=O)[C@@H](NC(=O)[C@H](Cc2ccc(O)cc2)NC(=O)[C@@H](N)Cc2cn(CCCCCCNC(=O)CCOCCOCCOCCOCCNC(=O)CCCC[C@@H]3SC[C@@H]4NC(=O)N[C@@H]43)nn2)CSSC[C@@H]2NC(=O)[C@@H]3CSSC[C@@H](C(=O)N[C@@H](CCCNC(=N)N)C(=O)N[C@@H](CCCCN)C(=O)N[C@H](C(=O)N[C@H](C(N)=O)[C@@H](C)CC)[C@@H](C)CC)NC(=O)[C@H](Cc4c[nH]c5ccccc45)NC(=O)[C@H](CC(C)C)NC(=O)[C@H](CCCCN)NC(=O)[C@H](CSSC[C@H](NC(=O)[C@H]([C@@H](C)O)NC(=O)[C@H](Cc4c[nH]c5ccccc45)NC1=O)C(=O)N[C@@H](CC(=O)O)C(=O)N[C@@H](CO)C(=O)N[C@@H](CCCCN)C(=O)N[C@@H](CCCNC(=N)N)C(=O)N[C@@H](C)C(=O)N3)NC(=O)[C@H](CCCNC(=N)N)NC(=O)[C@H](CC(C)C)NC(=O)CNC(=O)[C@H](CCC(=O)O)NC2=O` [compound 898], the Nav1.4/Nav1.7 on hNav1.4 (Table 13) is recorded as 6. Moreover, the IC50 worked out at 15.5 nM on hNav1.4, 2.48 nM at hNav1.7 and 5130 nM at hNav1.5. The Nav1.5/Nav1.7 on hNav1.5 (Table 13) turned out to be 2067.

The values are drawn from patent US10344060B2 (priority 2013, dated 2019).
